Experimental data taken from EP2045247B1, “Compounds for the inhibition of histone deacetylase” (NatureWise Biotech & Medicals Corporation, priority 2007, dated 2009).

Assays:
acetylated histone H4 = assay: Western blotting of hyperacetylated histone H4 in C6 glioma cell lysates; assay type: cell-based, rat; conditions: C6 glioma cells
Protocol: Accumulation of hyperacetylated histone H4 was analyzed in the cell lysates by using Western Blotting and the antibody directed against acetylated histone H4 (Upstate). The C6 glioma cells were seeded at a density of 1×10^6 per 10cm culture dish. After 24 hours, the cells were treated with 10 µg/mL of NBM-HD-1 or 4mM sodium butyrate for several hours. The whole-cell lysates were prepared by using denaturing SDS sample buffer and then separated on 15% SDS-polyacrylamide gels. […] The amount of acetylated histones was hardly detectable in untreated C6 glioma cells. The amount of acetylated histone H4 of the cells treated with 4mM sodium butyrate for 2 hours increased. Sodium butyrate was then removed from the culture medium. After 6 hours, the amount of acetylated histone H4 decreased. The accumulation of acetylated histone H4 increased in the cells treated with NBM-HD-1 for 2 hours. […] The highest histone acetylation appeared at 6 hours after the compound had been removed. […] Because NBM-HD-1 is more hydrophobic than sodium butyrate, NBM-HD-1 can be retained in the cells longer than sodium butyrate and continuously induce the acetylation of histone H4.

[1] = system: human giloblastoma DBTRG-05MG cancer cells; assay: Inhibition of growth and change of morphology of DBTRG-05MG cells; assay type: cell-based; conditions: NBM-HD-1 2.5, 5 and 10 µg/mL, sodium butyrate 4 mM; 72 hours; density and cell counting (Fig. 7)
Protocol: The human giloblastoma DBTRG-05MG cancer cells were cultured in RPMI medium 1640 (Gibco) supplemented with penicillin G, streptomycin sulphate, 0.5 mM of L-glutamine and 10% fetal bovine serum (FBS; Gibco), 100mh/L sodium pyruvate (Gibco), and 1% NEAA (Gibco) at 37 °C, 5% CO2 and 95% relative humidity. For these experiments, the cells were seeded at a density of 3×10^5 per well of 6-well plates. After 24 hours, the cells were treated with different concentrations of NBM-HD-1 and 4 mM sodium butyrate. The cells were observed and counted after 72 hours. […] In 05MG cells (Fig. 7(A)), after incubation with 2.5 µg/mL (Fig. 7(A)-b), 5 µg/mL (Fig. 7(A)-c) and 10 µg/mL (Fig.7(A)-d) of NBM-HD-1 for 72 hours, the density of the cells reduced dramatically in comparison with that of the control group (Fig. 7(A)-a). The 05MG cells in the experimental group also changed to become longer than those in the control group.

[2] = system: breast cancer MCF-7 cells; assay: Inhibition of growth and change of morphology of MCF-7 cells; assay type: cell-based, human; conditions: 2.5, 5, 7.5 and 10 µg/mL; for morphology of MCF-7 cells: 72 hours (Fig. 13(A), Fig. 14(A)); for growth of MCF-7 cancer cells: sodium butyrate 4mM, observed and counted after 72 hours (Fig. 13, Fig. 14)
Protocol: The breast cancer MCF-7 cells, were cultured in Dulbecco's modified Eagle's medium (DMEM; Gibco) supplemented with penicillin G, streptomycin sulphate, 0.5 mM of L-glutamine and 10% fetal bovine serum (FBS; Gibco) at 37 °C, 5% CO2 and 95% relative humidity. The cells were seeded at a density of 3×10^5 per well of 6-well plates. After 24 hours, the cells were treated with different concentrations of compound NBM-HD-1 and 4mM sodium butyrate being used as the positive control. The cells were observed after 48 hours and counted after 96 hours. […] In Fig. 8(A), after the cells were incubated with 2.5 µg/mL (Fig. 8(A)-b), 5 µg/mL (Fig. 8(A)-c) and 10 µg/mL (Fig. 8(A)-d) of NBM-HD-1 for 48 hours, the density of MCF-7 cells reduced dramatically in comparison with that of the control group (Fig. 8(A)-a). The morphology of the MCF-7 cells in the experimental group changed in comparison with that in the control group. […] The results of the cell counting (FIG. 8(B)) indicate that, similar to sodium butyrate, NBM-HD-1 inhibits cell growth.
MCF-7 cancer cells were seeded at a density of 3×10^5 per well in 6-well plates. After 24 hours, the cells were treated with different concentrations of compound NBM-HD-2 and 4mM sodium butyrate being used as the positive control. The cells were observed and counted after 72 hours. […] In Fig. 13(A), after the cells were incubated with 2.5 µg/mL (Fig. 13(A)-c), 5 µg/mL (Fig. 13(A)-d), 7.5 µg/mL (Fig. 13(A)-e) and 10 µg/mL (Fig. 13(A)-f) of NBM-HD-2 for 72 hours, the density of MCF-7 cells reduced dramatically in comparison with that of the control group (Fig. 13(A)-a). The morphology of the MCF-7 cells in the experimental group changed in comparison with that in the control group.
MCF-7 cancer cells were seeded at a density of 3×10^5 per well of 6-well plates. After 24 hours, the cells were treated with different concentrations of compound NBM-HD-3 and 4mM sodium butyrate, which was being used as the positive control. The cells were observed and counted after 72 hours. […] In Fig. 14(A), after the cells were incubated with 2.5 µg/mL (Fig. 14(A)-c), 5 µg/mL (Fig. 14(A)-d), 7.5 µg/mL (Fig. 14(A)-e) and 10 µg/mL (Fig. 14(A)-f) of NBM-HD-3 for 72 hours, the density of MCF-7 cells reduced dramatically in comparison with that of the control group (Fig. 14(A)-a). The morphology of the MCF-7 cells in the experimental group changed in comparison with that in the control group. […] The results of the cell counting (FIG. 14(B)) indicate that, similar to sodium butyrate, NBM-HD-3 inhibits cell growth.

SMILES | accumulation of acetylated histone H4, treated for 2 hours (acetylated histone H4; 10 µg/mL NBM-HD-1 or 4mM sodium butyrate, 2 hours (Fig. 5)) | amount of acetylated histone H4 after removal of the compound from the culture medium (acetylated histone H4; up to 6 hours after removal (Fig. 5)) | growth of 05MG cells [1] | morphology of MCF-7 cells [2] | growth of MCF-7 cancer cells [2]
CCCC(=O)[O-].[Na+] [sodium butyrate, reference compound] | increased | decreased | could inhibit the proliferation of 05MG cancer cells | – | –
COc1cc2c(c(O)c1CC=C(C)C)C(=O)C[C@@H](c1ccc(OC)c(OC)c1C/C=C(\C)CCCC(C)(C)O)O2 [NBM-HD-2] | – | – | – | change their morphology | can inhibit the growth of MCF-7 cancer cells in a dose-dependent manner
COc1cc2c(c(O)c1CCC(C)(C)O)C(=O)C[C@@H](c1ccc(OC)c(OC)c1C/C=C(\C)CCCC(C)(C)O)O2 [NBM-HD-3] | – | – | – | change their morphology | can inhibit the growth of MCF-7 cancer cells in a dose-dependent manner
